Our source for the Km values is publication PMC10222279, “Detection of Acetaminophen in Groundwater by Laccase-Based Amperometric Biosensors Using MoS2 Modified Carbon Paper Electrodes” (Sensors (Basel, Switzerland), 2023).

This test concerns T1, TvL.
T1 construct: gene LCC2
Particulars: read-out: KMapp / Free; free enzyme; assay as for activity: 50 mM citric/phosphate buffer pH 4, 420 nm; unit not in table grid, µM. The source says: ABTS oxidation kinetics, non-linear Michaelis-Menten fit on TvL

The structures appear in SMILES notation.

For the compound `CCn1c(=NN=c2sc3cc(S(=O)(=O)O)ccc3n2CC)sc2cc(S(=O)(=O)O)ccc21` [ABTS, 2,2′-azino-bis(3-ethylbenzthiazoline-6-sulphonic acid)], the Km was determined as 42.1 ± 3.14 µM.
